Test results taken from PubChem BioAssay AID1996.
In brackets after ≈: the same amount, converted by molar mass.

Conditions: buffer; pH 7.4; 200.0 µM

SMILES	solubility kinetic
CCOC(=O)C1CCN(C(=O)COc2ccc(C(=O)c3ccccc3)cc2)CC1	36.6 µg/mL (≈ 92.6 µM)
O=C1COc2ccc(S(=O)(=O)NCCc3ccccc3)cc2N1	13 µg/mL (≈ 39.1 µM)
O=C(c1ccc(Cl)cc1)N1CCN(CCOc2ccccc2)CC1	> 51.7 µg/mL
CCC[C@H](N[C@@H](CCC)[C@H](O)c1ccccc1)[C@H](O)c1ccccc1	5.4 µg/mL (≈ 15.8 µM)
CC(C)C1Nc2ccc(C(=O)O)cc2C2C=CCC21 (centres undefined)	> 38.6 µg/mL
Cc1ccc(C(=O)NCC(C)NC(=O)c2ccc(C)c(C)c2)cc1C (centres undefined)	3.4 µg/mL (≈ 10 µM)
COc1ccc2c(c1)-c1nc(/N=C/c3ccc(O)cc3)sc1CC2	34 µg/mL (≈ 101 µM)
CCOC(=O)CNc1ccc(OC(F)(F)F)cc1	7.2 µg/mL (≈ 27.4 µM)
CCOc1ccc(N2C(=O)CC(NCc3ccc(S(N)(=O)=O)cc3)C2=O)cc1 (centres undefined)	48.7 µg/mL (≈ 121 µM)
N[C@@H](Cc1ccc(O)cc1)C(=O)Nc1ccc2ccccc2c1	> 46 µg/mL
COC(=O)c1c(N)sc2c1CC(C)(C)OC2	> 36.2 µg/mL
Cc1cc(=O)[nH]c(SCC(=O)NCc2ccc3c(c2)OCO3)n1	> 50 µg/mL
O=C1CSC(c2ccccc2)N1c1ccc(F)cc1F (centres undefined)	38 µg/mL (≈ 130 µM)
CS(=O)(=O)N1CCC(C(=O)N2CCN(Cc3ccccc3)CC2)CC1	> 54.8 µg/mL
CC(C(=O)NCc1cccnc1)c1ccc([N+](=O)[O-])cc1 (centres undefined)	> 42.8 µg/mL
CCOC(=O)c1ccc(NC(=O)NC2CC3CCC(C2)N3)cc1 (centres undefined)	43.5 µg/mL (≈ 137 µM)
O=C(CC1S/C(=N/N=C2CCCCCC2)NC1=O)Nc1ccccc1F (centres undefined)	> 56.5 µg/mL
Cn1c(O)c(C=Nc2ccccc2-c2ccccc2)c(=O)n(C)c1=O	< 0.2 µg/mL
CCOC(=O)c1cnc2c(ccc3ccccc32)c1N	< 0.3 µg/mL
O=C(CN1CCN(Cc2ccccc2Cl)CC1)N/N=C/c1ccccn1	> 55.8 µg/mL
CCC(=O)N1CCN=C1SCc1cccc(C(F)(F)F)c1	40.8 µg/mL (≈ 129 µM)

SMILES	solubility kinetic
CCOc1ccc(N2CC(C(=O)N3CCCCCC3)CC2=O)cc1 (centres undefined)	> 49.6 µg/mL
CN(CCC#N)C(=S)Nc1ccc(F)cc1	32.8 µg/mL (≈ 138 µM)
NC(=O)C1CCCN1 (centres undefined)	> 17.1 µg/mL
CC(C)[C@H](NC(=O)c1ccccc1)C(=O)OCC(=O)c1c(N)n(C)c(=O)n(C)c1=O	> 62.5 µg/mL
O=C(NCc1cccnc1)Nc1cccc(NC(=O)NCc2cccnc2)c1F	7.6 µg/mL (≈ 19.3 µM)
CCOC(=O)c1csc(N)c1-c1ccc([N+](=O)[O-])cc1	5.5 µg/mL (≈ 18.8 µM)
O=C(Nc1cc(Cl)cc(Cl)c1)Nc1cnccn1	0.2 µg/mL (≈ 0.706 µM)
Cc1ccc(O)c(CNc2nc3ccccc3n2C(C)C)c1	0.6 µg/mL (≈ 2.03 µM)
Cc1ccc(C(=O)Cn2cc([N+](=O)[O-])nc2C)cc1	11.7 µg/mL (≈ 45.1 µM)
CC(C)Cn1c(SCC(=O)Nc2ccc(Cl)cc2F)nc(O)cc1=O	> 57.9 µg/mL
Cn1c(C(=O)N[C@@H](Cc2ccccc2)C(=O)O)cc2cc(Cl)ccc21	> 53.5 µg/mL
CC(C)(C)c1ccccc1NC(=O)CN1C(=O)NC2(CCCC2)C1=O	6.1 µg/mL (≈ 17.8 µM)
CCCn1c(SCC(=O)NCCCN2CCCC2=O)nc2ccccc2c1=O	> 60.4 µg/mL
O=C(Nc1cc(S(=O)(=O)N2CCOCC2)ccc1N1CCOCC1)c1ccccc1Cl	> 69.9 µg/mL
O=C(NC1CCCC1)C1CCN(C(=O)c2ccc(Cl)cc2)CC1	> 50.2 µg/mL
Cc1ccc(NC(=O)CNC(=O)c2ccco2)cc1	> 38.7 µg/mL
COc1cccc(NC(=O)N2CCCCCC2)c1	> 37.2 µg/mL
Nc1c(C(=O)C2CC2)sc2nc3c(cc12)CCC3	2.2 µg/mL (≈ 8.52 µM)
O=C(CSc1ccc2c(c1)OCCO2)NCc1ccccc1	44 µg/mL (≈ 140 µM)
Cc1nnc(NC(=O)C2CCCC2)s1	> 31.7 µg/mL
O=C(NCC1CCCO1)c1cnc(Cl)c(Cl)c1 (centres undefined)	> 41.3 µg/mL

SMILES	solubility kinetic
O=C(NC1CCCC1)C(c1cc2c(cc1[N+](=O)[O-])OCO2)N1CCCC1 (centres undefined)	40.6 µg/mL (≈ 112 µM)
CCOc1ccc2[nH]c3c(NCC(C)C)ncnc3c2c1	5.1 µg/mL (≈ 17.9 µM)
O=C(c1cc([N+](=O)[O-])ccc1Cl)N1CCc2ccccc21	1.6 µg/mL (≈ 5.29 µM)
Cc1cc(C(=O)COc2cc(F)ccc2[N+](=O)[O-])c(C)n1C1CC1	3.3 µg/mL (≈ 9.93 µM)
COc1ccc2nc(SCC(=O)NCC3CCCO3)c(C#N)cc2c1 (centres undefined)	5.2 µg/mL (≈ 14.5 µM)
Cc1ccc(S(=O)(=O)N2CCCC2c2cccnc2)cc1 (centres undefined)	> 45.4 µg/mL
O=C(Nc1ccccc1N1CCCC1)c1cccc(F)c1	> 42.6 µg/mL
O=C(COC(=O)/C=C/c1cccc([N+](=O)[O-])c1)NCc1ccco1	18.5 µg/mL (≈ 56 µM)
CC(=O)c1cc(F)ccc1OCC(=O)Nc1ccc2c(c1)OCO2	7.8 µg/mL (≈ 23.5 µM)
Cc1cccc(C(=O)NCC(=O)OCC(=O)c2ccc(C)s2)c1	> 49.7 µg/mL
O=C1COc2ccc(C(=O)COC(=O)c3ccccn3)cc2N1	16.9 µg/mL (≈ 54.1 µM)
Cc1sc2nc(-c3cccnc3)[nH]c(=O)c2c1-c1ccccc1	2.1 µg/mL (≈ 6.58 µM)
COC(=O)c1cc(S(=O)(=O)N2CCCC2)c(Cl)cc1Cl	41.8 µg/mL (≈ 124 µM)
COc1cccc(NC(=O)C2CCN(c3cnccn3)CC2)c1	> 46.9 µg/mL
COC(=O)[C@H](Cc1ccccc1)NC(=O)Nc1ccc(OC)cc1	47 µg/mL (≈ 143 µM)
S=C1NCN(Cc2ccccc2)CN1	> 31.1 µg/mL
Cc1ccc(C(=O)Nc2ccc(C(F)(F)F)n(C)c2=O)cc1	2.1 µg/mL (≈ 6.77 µM)
CC(C)CC(=O)N1CC(=O)Nc2ccc(F)cc2C1c1ccccc1 (centres undefined)	> 51.1 µg/mL
Cc1ccc(C(=O)NC(=S)NCC2CCCO2)cc1[N+](=O)[O-] (centres undefined)	> 48.5 µg/mL
COCCN(CCOC)C(=O)N1CCOCC1	> 36.9 µg/mL
CCCSCCCNC(=O)Cn1c(=O)c2cccn2c2ccccc21	7.7 µg/mL (≈ 21.5 µM)

SMILES	solubility kinetic
C=CCN(Cc1cccc(OC)c1OC)C(=O)Oc1ccccc1	9.6 µg/mL (≈ 29.3 µM)
CCOC(=O)Cn1cc(C(=O)C(=O)N2CCOCC2)c2ccccc21	> 51.7 µg/mL
COc1cccc(C(=O)NCCS(=O)(=O)N2CCCC2)c1	> 46.9 µg/mL
CCOC(=O)c1cc2c(=O)[nH]c(C(Cl)(Cl)Cl)nc2o1	> 48.8 µg/mL
CCOc1ccc(NC(=O)N2CC(C)OC(C)C2)cc1 (centres undefined)	> 41.8 µg/mL
CCC(C(=O)NCCc1c[nH]c2ccc(C)cc12)c1ccccc1 (centres undefined)	26.4 µg/mL (≈ 82.4 µM)
CCC(C)n1c(O)c(C=NC(C)c2ccccc2)c(=O)[nH]c1=S (centres undefined)	4.3 µg/mL (≈ 13 µM)
CCOc1ccc(-n2c(-c3cccs3)nc3ccccc3c2=O)cc1	0.5 µg/mL (≈ 1.44 µM)
CC(NC(=O)COC(=O)C12CC3CC(CC(O)(C3)C1)C2)c1ccccc1 (centres undefined)	> 53.6 µg/mL
O=C1CCC([N+](=O)[O-])C(c2cc(Br)ccc2F)N1 (centres undefined)	46.4 µg/mL (≈ 146 µM)
Brc1ccc(CNCC2CCCO2)cc1 (centres undefined)	33.9 µg/mL (≈ 125 µM)
CC(=O)Cc1nsc(Nc2ccc(C)cc2)n1	35.9 µg/mL (≈ 145 µM)
CCOc1ccc(/C=C\c2nc(O)c([N+](=O)[O-])c(=O)[nH]2)cc1OCC	29 µg/mL (≈ 83.5 µM)
O=[N+]([O-])c1ccc(OCCn2cnc3ccccc32)cc1	7.6 µg/mL (≈ 26.8 µM)
Cc1ccc(C(=O)OCC(=O)NC(C)c2ccccc2)cc1C (centres undefined)	1.1 µg/mL (≈ 3.53 µM)
O=C(O)c1ccccc1Nc1ccnc(Cl)n1	> 37.4 µg/mL
CCOC(=O)c1c(C)[nH]c(C(=O)NCCN2CCOCC2)c1C	> 48.5 µg/mL
O=C(Nc1ccccc1)c1ccc(NC(=O)c2cccs2)cc1	< 0.3 µg/mL
COC(=O)c1cccc(NC(=O)CSCc2ccccc2)c1	35.6 µg/mL (≈ 113 µM)
CCc1ccc(C(=O)Nc2ccc3c(c2)n(C)c(=O)n3C)cc1	5.6 µg/mL (≈ 18.1 µM)
O=C(/C=C/c1ccc(Cl)cc1)Nc1cc(S(=O)(=O)N2CCOCC2)ccc1N1CCOCC1	5.9 µg/mL (≈ 12 µM)
